# In patent US6586450B2, “Phenethyl-thiourea compounds and use” (Parker Hughes Institute, priority 1999, dated 2003):
# Like-named read-outs stand apart in the source and are kept apart here.
# What was measured:
# [1] = molecular target: T1, purified recombinant HIV RT (Human immunodeficiency virus type 1 group M subtype B, UniProt P04585); assay: Purified recombinant HIV RT inhibition, cell-free Quan-T-RT scintillation proximity assay; type: biochemical
# T1 construct: against purified recombinant HIV RT using the cell-free Quan-T-RT system
# Description: In the assay, a DNA/RNA template is bound to SPA beads via a biotin/strepavidin linkage. The primer DNA is a 16-mer oligo(T) which has been annealed to a poly(A) template. The primer/template is bound to a strepavidin-coated SPA bead.
# ^3H-TTP is incorporated into the primer by reverse transcription. […] The compound being tested was added to the reaction mixture at 0.001 μM-100 μM concentrations. […] The reaction was stopped by addition of 0.2 ml of 120 mM EDTA. The samples were counted in an open window using a Beckman LS 7600 instrument and IC50 values were calculated by comparing the measurements to untreated samples.
# [2] = Microculture tetrazolium Assay (MTA, XTT) for cytotoxicity; type: cell-based, human; conditions: human, PBMC; Table 1; cytotoxicity, MTA
# HIV-1 strain HTLVIIIB = assay: Inhibition of HIV-1 HTLVIIIB replication in PBMC (p24 antigen EIA); type: cell-based
# Description: The HIV strain HTLVIIIB was kindly provided by Dr. Neal T.Wetherall, VIROMED Laboratories, Inc., and was propagated in CCRF-CEM cells.
# Subsequently, cells were cultured in 96-well microplates (100 μL/well; 2×10^6 cells/mL, triplicate wells) in the presence of various inhibitor concentrations. […] Ag. […] The applied p24 EIA was the unmodified kinetic assay commercially available from Coulter Corporation/Immunotech, Inc. (Westbrook, Me.).
# (§1) Percent inhibition of viral replication was calculated by comparing the p24 values from the test substance-treated infected cells with p24 values from untreated infected cells (i.e, virus controls).
# [3] = test system: NNI-resistant HIV-1 strain A17 with a Y181C mutation; assay: microbe, parasite or virus in culture; type: cell-based; conditions: for IC50: read-out: IC50 A17 (Y181C)
# Description: (§2) Normal human peripheral blood mononuclear cells (PBMNC) from HIV-negative donors were cultured 72 hours in RPMI 1640 supplemented with 20% (v/v) heat-inactivated fetal bovine serum (FBS), 3% interleukin-2,2 mM L-glutairine, 25 mM HEPES, 2 μL, NAHCO, […] gentamicin, and 4 μg/mL phytohemagglutinin prior to exposure to HIV-1 or other HIV strain at a multiplicity of infection (MOI) of 0.1 during a one-hour adsorption period at 37° C. in a humidified 5% CO2 atmosphere. Subsequently, cells were cultured in 96-well microplates (100 μL/well; 2×10^6 cells/mL, triplicate wells) in the presence of various inhibitor concentrations. Aliquots of culture supernatants were removed from the wells on the 7th day after infection for p24 antigen p24 enzyme immunoassays (EIA), as previously described in Erice et al., 1993, Antimicrob. Ag. Chemotherapy 37:385-838. The applied p24 EIA was the unmodified kinetic assay commercially available from Coulter Corporation/Immunotech, Inc. (Westbrook, Me.).
# as §1
# [4] = test system: multidrug resistant HIV-1 strain RT-MDR with a V106A mutation; assay: microbe, parasite or virus in culture; type: cell-based
# Description: as §2, §1
# PBMC = assay: Microculture tetrazolium Assay (MTA, XTT) for cytotoxicity; type: cell-based, human
# [5] = Table 1, recombinant HIV RT, read-out: IC50 rRT
# [6] = Table 2, recombinant HIV reverse transcriptase, read-out: IC50 rRT
# [7] = read-out: IC50 rRT, Table 2, recombinant HIV reverse transcriptase
# [8] = Human immunodeficiency virus 1, PBMC, Table 2, wild-type HIV-1, read-out: IC50 p24
# [9] = Human immunodeficiency virus 1, Table 1, p24 production in PBMC, read-out: IC50 HTLV mB
# [10] = Human immunodeficiency virus 1, PBMC
# [11] = Human immunodeficiency virus 1, PBMC, read-out: IC50 RT-MDR
# [12] = Human immunodeficiency virus 1, PBMC, read-out: IC50 HTLV mB
compound,measurement,setting,value
O=[N+]([O-])c1ccc(CCNC(=S)Nc2ccc(Br)cn2)cc1 [HI-231],IC50,[1]; [5],> 100000 nM
same,IC50,[1]; [6],> 100000 nM
"COc1ccc(CCNC(=S)Nc2ccc(Br)cn2)cc1 [HI-238, N-[2-(4-methoxyphenethyl)]-N′-[2-(5-bromopyridyl)]thiourea]",IC50,[1],900 nM
same,IC50,[1]; [7],900 nM
same,melting point,,178 to 179 °C
same,CC50,[2],> 100000 nM
same,IC50,HIV-1 strain HTLVIIIB; [8],15 nM
same,IC50,HIV-1 strain HTLVIIIB; [9],15 nM
"Fc1ccc(CCNC(=S)Nc2ccc(Br)cn2)cc1 [HI-242, N-[2-(4-fluorophenethyl)]-N′-[2-(5-bromopyridyl)]thiourea]",IC50,[1]; [5],6400 nM
same,IC50,[1]; [6],6400 nM
"S=C(NCCc1ccc(Br)cc1)Nc1ccc(Br)cn1 [HI-243, N-[2-(4-bromophenethyl)]-N′-[2-(5-bromopyridyl)]thiourea]",IC50,[1],900 nM
same,IC50,[3]; [10],1000 nM
same,IC50,[4]; [11],> 1 nM
same,melting point,,184 to 185 °C
same,CC50,[2],> 100000 nM
same,IC50,HIV-1 strain HTLVIIIB; [8],70 nM
same,IC50,HIV-1 strain HTLVIIIB; [9],70 nM
"Cc1ccc(CCNC(=S)Nc2ccc(Br)cn2)cc1 [HI-244, N-[2-(4-methylphenethyl)]-N′-[2-(5-bromopyridyl)]thiourea]",IC50,[1],100 nM
same,times more potent than trovirdine,"[3]; A17 strain, Y181C",7 times
same,IC50,[3]; [10],70 nM
same,higher potency relative to trovirdine,[3]; NNI-resistant A17 strain (Y181C mutation),7 fold
same,resistance of mutant strain to compound,[3]; Y181C mutant strain (A17 strain),10 fold
same,selectivity index,[3]; against NNI-resistant Y181C mutant strain A17,"> 1,000"
same,IC50,[4]; [11],> 1 nM
same,times more effective than trovirdine,"[4]; RT-MDR strain, V106A plus 74V, 41L, 215Y",20 times
same,resistance of mutant strain to compound,[4]; V106A mutant strain (RT-MDR),no resistance
same,selectivity index,[4]; against multidrug-resistant V106A mutant strain RT-MDR,"> 71,000"
same,melting point,,159 to 162 °C
same,CC50,[2],71000 nM
same,cytotoxicity to PBMC,PBMC; at a concentration,not cytotoxic
same,IC50,HIV-1 strain HTLVIIIB; [12],7 nM
same,IC50,"HIV-1 strain HTLVIIIB; Human immunodeficiency virus 1, PBMC, read-out: IC50 for inhibition of replication of HIV-1 strain HTLVIIIB in PBMC",7 nM
same,IC50,"HIV-1 strain HTLVIIIB; Human immunodeficiency virus 1, PBMC, read-out: IC50 p24",7 nM
same,selectivity index,HIV-1 strain HTLVIIIB; against wild-type HIV-1 strain HTLVIIIB,"> 10,000"
"S=C(NCCc1ccc(Cl)cc1)Nc1ccc(Br)cn1 [HI-255, N-[2-(4-chlorophenethyl)]-N′-[2-(5-bromopyridyl)]thiourea]",IC50,[1],2500 nM
same,IC50,[1]; [7],2500 nM
same,melting point,,180 to 183 °C
same,IC50,HIV-1 strain HTLVIIIB; [9],20800 nM
"Oc1ccc(CCNC(=S)Nc2ccc(Br)cn2)cc1 [HI-256, N-[2-(4-hydroxyphenethyl)]-N′-[2-(5-bromopyridyl)]thiourea]",IC50,[1],87700 nM
same,CC50,[2],> 100000 nM
same,IC50,HIV-1 strain HTLVIIIB; [12],3070 nM
"S=C(NCCc1ccccc1)Nc1ccc(Br)cn1 [HI-275, N-[2-(5-Bromopyridinyl)]-N′-[2-(Phenethyl)] thiourea]",IC50,[1]; [5],1300 nM
"S=C(NCCc1ccccn1)Nc1ccc(Br)cn1 [Trovirdine, reference compound]",IC50,"[3]; Table 1, p24 production in PBMC",500 nM
same,times less potent than HI-244,[4]; RT-MDR strain,20 times
same,IC50,"[4]; Table 1, p24 production in PBMC, read-out: IC50 RT-MDR (Y106A)",20 nM
same,CC50,"PBMC; Table 1, cytotoxicity, MTA",> 100000 nM
same,IC50,"HIV-1 strain HTLVIIIB; Table 1, p24 production in PBMC, read-out: IC50 HTLV mB",7 nM
same,IC50,"HIV-1 strain HTLVIIIB; Table 2, wild-type HIV-1, read-out: IC50 p24",7 nM
